From ChEMBL document CHEMBL5291721, “A preclinical secondary pharmacology resource illuminates target-adverse drug reaction associations of marketed drugs” (Nat Commun, 2023) come the findings set out here.

Test [1] concerns the target Sodium-dependent noradrenaline transporter (Homo sapiens, UniProt P23975).
The target of test [2] is T1, Thromboxane A2 receptor (Homo sapiens, UniProt P21731).
T1 sequence (P21731 whole entry): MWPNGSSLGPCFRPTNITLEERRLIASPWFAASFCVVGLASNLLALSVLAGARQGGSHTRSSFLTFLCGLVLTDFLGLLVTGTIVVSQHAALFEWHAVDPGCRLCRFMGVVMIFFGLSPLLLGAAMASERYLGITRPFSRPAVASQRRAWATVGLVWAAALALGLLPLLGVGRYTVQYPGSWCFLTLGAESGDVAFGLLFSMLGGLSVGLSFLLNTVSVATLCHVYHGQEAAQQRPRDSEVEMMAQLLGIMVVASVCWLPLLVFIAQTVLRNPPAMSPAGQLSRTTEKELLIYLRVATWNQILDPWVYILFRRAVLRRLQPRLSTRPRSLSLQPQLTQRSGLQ
The format is functional, cell-based.

The target in test [3] is D(3) dopamine receptor (Homo sapiens, UniProt P35462).
Test [4] deals with T2, Amine oxidase [flavin-containing] A (Homo sapiens, UniProt P21397).
T2 sequence (P21397 whole entry): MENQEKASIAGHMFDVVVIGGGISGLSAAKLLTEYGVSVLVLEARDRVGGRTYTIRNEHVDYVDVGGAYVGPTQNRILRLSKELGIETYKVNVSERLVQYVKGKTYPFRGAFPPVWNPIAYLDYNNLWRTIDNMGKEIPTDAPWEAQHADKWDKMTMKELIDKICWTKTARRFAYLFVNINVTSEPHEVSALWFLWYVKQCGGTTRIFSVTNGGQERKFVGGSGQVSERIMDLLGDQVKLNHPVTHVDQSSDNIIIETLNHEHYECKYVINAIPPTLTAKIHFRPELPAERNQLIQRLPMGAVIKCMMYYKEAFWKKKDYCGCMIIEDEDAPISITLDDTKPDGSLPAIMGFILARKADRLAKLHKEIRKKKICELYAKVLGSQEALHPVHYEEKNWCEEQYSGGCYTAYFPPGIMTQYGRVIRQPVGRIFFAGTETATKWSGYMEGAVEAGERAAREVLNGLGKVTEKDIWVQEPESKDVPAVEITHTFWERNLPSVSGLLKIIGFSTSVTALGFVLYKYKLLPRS
The test is classed as functional.

Test [5] deals with 3',5'-cyclic-AMP phosphodiesterase 4A (Homo sapiens, UniProt P27815). The test is classed as functional.
For test [6], the target named is Histamine H3 receptor (Homo sapiens, UniProt Q9Y5N1).
In test [7] the target is cGMP-inhibited 3',5'-cyclic phosphodiesterase 3A (Homo sapiens, UniProt Q14432). The test is classed as functional.
Test [8] concerns the target T3, Alpha-1A adrenergic receptor (Homo sapiens, UniProt P35348).
T3 sequence (P35348 whole entry): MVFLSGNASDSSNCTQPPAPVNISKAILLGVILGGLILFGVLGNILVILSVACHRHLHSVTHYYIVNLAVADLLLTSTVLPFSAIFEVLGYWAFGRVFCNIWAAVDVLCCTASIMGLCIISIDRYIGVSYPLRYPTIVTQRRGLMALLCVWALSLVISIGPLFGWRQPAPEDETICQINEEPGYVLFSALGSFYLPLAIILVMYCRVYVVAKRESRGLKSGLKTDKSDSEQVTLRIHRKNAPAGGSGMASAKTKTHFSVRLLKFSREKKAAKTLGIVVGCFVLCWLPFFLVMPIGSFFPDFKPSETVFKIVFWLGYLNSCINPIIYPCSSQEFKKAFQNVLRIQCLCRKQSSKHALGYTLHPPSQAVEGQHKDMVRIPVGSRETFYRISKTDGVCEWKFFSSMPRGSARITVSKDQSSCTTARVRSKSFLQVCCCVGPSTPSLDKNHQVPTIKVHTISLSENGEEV
The format is functional, cell-based.

For test [9], the target named is Prothrombin (Homo sapiens, UniProt P00734). The test is classed as functional.
For test [10], the target named is T4, 5-hydroxytryptamine receptor 1A (Homo sapiens, UniProt P08908).
T4 sequence (P08908 whole entry): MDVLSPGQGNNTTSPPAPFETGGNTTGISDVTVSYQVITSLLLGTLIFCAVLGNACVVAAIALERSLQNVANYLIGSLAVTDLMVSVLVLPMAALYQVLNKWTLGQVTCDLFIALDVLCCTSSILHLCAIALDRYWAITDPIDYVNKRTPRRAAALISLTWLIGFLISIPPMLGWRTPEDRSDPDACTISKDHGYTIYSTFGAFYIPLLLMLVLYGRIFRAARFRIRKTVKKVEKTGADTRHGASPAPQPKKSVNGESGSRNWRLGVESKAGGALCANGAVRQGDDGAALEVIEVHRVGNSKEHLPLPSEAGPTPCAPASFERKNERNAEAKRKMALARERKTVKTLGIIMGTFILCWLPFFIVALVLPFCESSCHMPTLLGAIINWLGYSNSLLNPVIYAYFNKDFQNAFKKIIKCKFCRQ

For test [11], the target named is T5, Prostaglandin G/H synthase 1 (Homo sapiens, UniProt P23219). The format is functional.
In test [12] the target is T5, Prostaglandin G/H synthase 1. The test is classed as functional. This is another data set of the same source.
For test [13], the target named is D(1A) dopamine receptor (Homo sapiens, UniProt P21728).
The target of test [14] is Sodium-dependent dopamine transporter (Homo sapiens, UniProt Q01959).
Test [15] concerns the target T6, Muscarinic acetylcholine receptor M2 (Homo sapiens, UniProt P08172).
T6 sequence (P08172 whole entry): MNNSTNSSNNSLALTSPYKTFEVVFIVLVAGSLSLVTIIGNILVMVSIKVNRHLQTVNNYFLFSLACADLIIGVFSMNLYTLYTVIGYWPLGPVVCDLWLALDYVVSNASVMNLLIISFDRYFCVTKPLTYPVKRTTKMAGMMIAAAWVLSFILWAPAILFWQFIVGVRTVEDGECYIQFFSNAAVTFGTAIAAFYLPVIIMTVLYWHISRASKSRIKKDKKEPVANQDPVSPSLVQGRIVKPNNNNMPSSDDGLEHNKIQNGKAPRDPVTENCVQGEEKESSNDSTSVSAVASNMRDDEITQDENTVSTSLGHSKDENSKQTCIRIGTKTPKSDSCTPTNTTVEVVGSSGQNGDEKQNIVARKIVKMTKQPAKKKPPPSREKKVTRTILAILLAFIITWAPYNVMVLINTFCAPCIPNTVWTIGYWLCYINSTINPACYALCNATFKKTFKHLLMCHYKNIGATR

The target in test [16] is Acetylcholinesterase (Homo sapiens, UniProt P22303). The format is functional.

Broadly, the AC50 is the midpoint of the concentration-response curve, whichever way the signal moves. A lower AC50 goes with activity at low concentration.

The structures appear in SMILES notation.
Further: assay procedure not described here.

Chain of Acetylcholinesterase (P22303 whole entry): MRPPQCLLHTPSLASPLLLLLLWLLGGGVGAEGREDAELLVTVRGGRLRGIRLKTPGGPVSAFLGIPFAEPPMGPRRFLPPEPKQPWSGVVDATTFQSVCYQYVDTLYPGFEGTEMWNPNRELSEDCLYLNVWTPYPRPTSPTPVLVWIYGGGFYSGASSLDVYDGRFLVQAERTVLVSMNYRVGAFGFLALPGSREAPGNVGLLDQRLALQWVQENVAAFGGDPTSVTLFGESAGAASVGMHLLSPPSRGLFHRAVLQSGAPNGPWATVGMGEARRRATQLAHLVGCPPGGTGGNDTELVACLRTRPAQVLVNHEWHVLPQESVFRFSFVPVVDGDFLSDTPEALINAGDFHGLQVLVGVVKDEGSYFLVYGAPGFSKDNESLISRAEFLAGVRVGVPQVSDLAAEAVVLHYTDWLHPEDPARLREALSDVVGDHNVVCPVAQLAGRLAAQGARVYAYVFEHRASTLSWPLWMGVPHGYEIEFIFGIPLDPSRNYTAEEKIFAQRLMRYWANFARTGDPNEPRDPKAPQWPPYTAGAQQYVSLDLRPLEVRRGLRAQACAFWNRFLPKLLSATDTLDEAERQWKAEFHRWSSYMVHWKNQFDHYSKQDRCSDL
Chain of 3',5'-cyclic-AMP phosphodiesterase 4A (P27815 whole entry): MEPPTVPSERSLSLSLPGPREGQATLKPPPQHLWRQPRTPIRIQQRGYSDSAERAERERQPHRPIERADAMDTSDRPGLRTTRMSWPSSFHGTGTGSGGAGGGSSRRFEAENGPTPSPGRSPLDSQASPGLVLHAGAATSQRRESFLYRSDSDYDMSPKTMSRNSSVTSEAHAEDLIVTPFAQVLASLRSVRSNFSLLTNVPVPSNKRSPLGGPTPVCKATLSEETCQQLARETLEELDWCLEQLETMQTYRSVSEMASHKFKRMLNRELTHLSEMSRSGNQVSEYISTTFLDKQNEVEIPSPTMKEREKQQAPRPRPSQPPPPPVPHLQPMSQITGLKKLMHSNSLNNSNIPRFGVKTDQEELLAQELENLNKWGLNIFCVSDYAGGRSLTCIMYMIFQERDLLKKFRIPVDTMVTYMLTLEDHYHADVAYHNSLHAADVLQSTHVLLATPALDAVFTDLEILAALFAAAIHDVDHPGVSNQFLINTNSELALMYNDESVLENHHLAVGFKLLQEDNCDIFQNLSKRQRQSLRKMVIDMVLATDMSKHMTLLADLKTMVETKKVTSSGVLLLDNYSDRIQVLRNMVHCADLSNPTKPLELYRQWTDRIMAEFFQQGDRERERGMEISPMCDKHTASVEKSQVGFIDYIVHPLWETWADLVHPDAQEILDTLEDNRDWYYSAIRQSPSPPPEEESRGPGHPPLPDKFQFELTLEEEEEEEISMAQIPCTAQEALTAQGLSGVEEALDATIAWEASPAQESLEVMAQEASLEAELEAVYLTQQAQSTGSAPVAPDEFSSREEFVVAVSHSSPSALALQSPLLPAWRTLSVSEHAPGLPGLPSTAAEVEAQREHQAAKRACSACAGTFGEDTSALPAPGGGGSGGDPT
Chain of cGMP-inhibited 3',5'-cyclic phosphodiesterase 3A (Q14432 whole entry): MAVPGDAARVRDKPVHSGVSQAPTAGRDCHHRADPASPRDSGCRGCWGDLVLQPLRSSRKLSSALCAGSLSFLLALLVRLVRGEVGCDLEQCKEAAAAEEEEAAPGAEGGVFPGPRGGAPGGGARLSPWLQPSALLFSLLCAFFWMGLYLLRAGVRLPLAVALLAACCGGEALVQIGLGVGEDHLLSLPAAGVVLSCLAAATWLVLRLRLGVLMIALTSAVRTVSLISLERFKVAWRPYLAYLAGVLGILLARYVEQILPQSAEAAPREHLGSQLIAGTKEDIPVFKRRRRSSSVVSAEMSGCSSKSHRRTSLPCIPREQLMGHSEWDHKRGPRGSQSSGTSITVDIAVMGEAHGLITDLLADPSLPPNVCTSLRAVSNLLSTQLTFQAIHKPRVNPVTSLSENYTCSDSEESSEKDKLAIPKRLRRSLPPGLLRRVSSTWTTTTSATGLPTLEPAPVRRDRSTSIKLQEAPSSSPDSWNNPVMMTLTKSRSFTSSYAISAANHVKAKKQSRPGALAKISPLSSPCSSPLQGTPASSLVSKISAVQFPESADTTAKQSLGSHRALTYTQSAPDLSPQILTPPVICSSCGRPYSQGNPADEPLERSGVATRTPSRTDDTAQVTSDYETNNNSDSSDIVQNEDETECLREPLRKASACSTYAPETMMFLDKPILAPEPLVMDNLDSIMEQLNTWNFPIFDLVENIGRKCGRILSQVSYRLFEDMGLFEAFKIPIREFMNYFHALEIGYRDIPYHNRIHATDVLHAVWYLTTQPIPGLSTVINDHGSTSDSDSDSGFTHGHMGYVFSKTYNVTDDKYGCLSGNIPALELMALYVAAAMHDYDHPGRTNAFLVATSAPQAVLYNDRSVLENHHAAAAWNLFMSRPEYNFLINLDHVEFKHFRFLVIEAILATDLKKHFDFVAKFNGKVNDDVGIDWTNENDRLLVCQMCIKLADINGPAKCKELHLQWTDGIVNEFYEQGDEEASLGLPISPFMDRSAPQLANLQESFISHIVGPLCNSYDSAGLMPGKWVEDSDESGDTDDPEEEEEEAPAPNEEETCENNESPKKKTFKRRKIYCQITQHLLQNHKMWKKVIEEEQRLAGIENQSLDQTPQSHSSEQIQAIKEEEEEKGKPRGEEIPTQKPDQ
Chain of D(1A) dopamine receptor (P21728 whole entry): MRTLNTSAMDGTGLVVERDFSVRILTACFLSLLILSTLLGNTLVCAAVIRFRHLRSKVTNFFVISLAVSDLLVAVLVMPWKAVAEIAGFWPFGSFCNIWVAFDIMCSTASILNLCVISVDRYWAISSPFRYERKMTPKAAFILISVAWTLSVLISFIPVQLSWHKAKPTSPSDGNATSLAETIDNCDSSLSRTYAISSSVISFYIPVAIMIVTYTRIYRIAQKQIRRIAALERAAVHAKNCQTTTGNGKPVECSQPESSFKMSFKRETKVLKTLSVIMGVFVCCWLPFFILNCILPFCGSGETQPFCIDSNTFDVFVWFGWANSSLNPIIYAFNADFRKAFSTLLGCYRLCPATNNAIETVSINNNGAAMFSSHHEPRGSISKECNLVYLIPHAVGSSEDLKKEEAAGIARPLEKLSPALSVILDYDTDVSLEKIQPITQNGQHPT
Chain of Histamine H3 receptor (Q9Y5N1 whole entry): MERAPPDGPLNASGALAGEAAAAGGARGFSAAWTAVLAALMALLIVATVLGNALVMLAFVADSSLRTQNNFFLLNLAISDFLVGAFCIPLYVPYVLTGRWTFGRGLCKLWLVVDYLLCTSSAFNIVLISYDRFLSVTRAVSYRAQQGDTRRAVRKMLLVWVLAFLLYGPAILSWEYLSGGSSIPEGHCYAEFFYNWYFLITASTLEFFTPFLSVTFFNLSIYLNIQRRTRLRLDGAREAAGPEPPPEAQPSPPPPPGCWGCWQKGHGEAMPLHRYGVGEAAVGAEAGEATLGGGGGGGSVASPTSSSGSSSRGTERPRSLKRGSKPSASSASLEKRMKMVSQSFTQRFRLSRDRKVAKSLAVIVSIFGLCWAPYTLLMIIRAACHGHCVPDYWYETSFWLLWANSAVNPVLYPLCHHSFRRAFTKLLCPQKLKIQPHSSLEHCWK
Chain of Sodium-dependent dopamine transporter (Q01959 whole entry): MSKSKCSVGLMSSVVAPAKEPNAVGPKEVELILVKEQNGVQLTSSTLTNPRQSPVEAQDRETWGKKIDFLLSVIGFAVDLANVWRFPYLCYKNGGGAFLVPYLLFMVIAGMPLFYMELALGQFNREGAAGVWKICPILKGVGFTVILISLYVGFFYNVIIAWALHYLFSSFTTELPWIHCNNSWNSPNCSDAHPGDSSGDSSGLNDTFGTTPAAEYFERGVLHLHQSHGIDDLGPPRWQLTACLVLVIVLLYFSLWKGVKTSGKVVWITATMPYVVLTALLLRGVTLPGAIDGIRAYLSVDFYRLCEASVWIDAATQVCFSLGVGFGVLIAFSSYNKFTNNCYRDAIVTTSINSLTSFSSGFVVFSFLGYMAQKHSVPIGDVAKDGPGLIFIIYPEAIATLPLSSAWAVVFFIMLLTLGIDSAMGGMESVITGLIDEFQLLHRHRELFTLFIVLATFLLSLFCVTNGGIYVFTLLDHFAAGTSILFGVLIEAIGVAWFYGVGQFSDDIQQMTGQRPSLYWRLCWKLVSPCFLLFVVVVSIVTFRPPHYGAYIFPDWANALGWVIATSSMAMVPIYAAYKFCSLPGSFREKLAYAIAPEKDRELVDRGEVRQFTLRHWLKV
Chain of D(3) dopamine receptor (P35462 whole entry): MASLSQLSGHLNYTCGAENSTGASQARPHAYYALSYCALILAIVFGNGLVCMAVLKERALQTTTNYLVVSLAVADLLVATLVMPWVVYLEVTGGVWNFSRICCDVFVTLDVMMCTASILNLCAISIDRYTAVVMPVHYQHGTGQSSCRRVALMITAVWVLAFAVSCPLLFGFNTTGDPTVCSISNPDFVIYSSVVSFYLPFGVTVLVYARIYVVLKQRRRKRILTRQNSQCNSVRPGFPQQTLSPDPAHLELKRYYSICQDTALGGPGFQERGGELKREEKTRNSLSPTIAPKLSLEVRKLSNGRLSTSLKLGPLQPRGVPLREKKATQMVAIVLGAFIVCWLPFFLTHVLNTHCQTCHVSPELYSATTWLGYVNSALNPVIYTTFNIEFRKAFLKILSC

Take `C=N[C@@H](C(=O)N[C@@H]1C(=O)N2[C@@H]1SC(C)(C)[C@@H]2C(=O)O)c1ccccc1` [METAMPICILLIN]: the AC50 in test [1], in test [2], in test [3], in [4], in [5] and in test [6] was > 30 µM each time. Also, the AC50 was > 30 µM in test [7]; > 30 µM in [8]; > 30 µM in test [9]; > 30 µM in test [10]; 11.8 µM in test [11]; 9.26 µM in [12]. Also, the AC50 in test [13], in [14], in [15] and in test [16] was > 30 µM each time.

Take `O=C(NNCS(=O)(=O)O)c1ccncc1` [METHANIAZIDE]: the AC50 in test [1], in test [2], in [3], in test [4], in [5] and in [6] was > 30 µM each time. Besides, the AC50 in test [7], in test [8], in test [9], in test [10], in test [11] and in [12] was > 30 µM throughout. For the same compound, the AC50 in test [13], in [14], in [15] and in test [16] was > 30 µM each time.

Regarding `Cc1cc(=O)[nH]c(=S)[nH]1` [METHYLTHIOURACIL], the AC50 in test [1], in [2], in test [3], in [4], in test [5] and in test [6] was > 30 µM throughout. The AC50 in [7] is > 30 µM; in test [8] it was > 30 µM; in test [9], > 30 µM; in test [10] it was > 30 µM; in test [11], > 30 µM; in test [12], 13.1 µM. For the same compound, the AC50 in test [13], in [14], in test [15] and in test [16] was > 30 µM each time.

For the compound `CN(C)c1ccc(O)c2c1C[C@H]1C[C@H]3[C@H](N(C)C)C(O)=C(C(N)=O)C(=O)[C@@]3(O)C(O)=C1C2=O` [MINOCYCLINE], the AC50 in test [1], in test [2], in test [3], in test [4], in [5] and in [6] was > 30 µM throughout. Besides, the AC50 was > 30 µM in test [7]; > 30 µM in test [8]; > 30 µM in test [9]; > 30 µM in test [10]; 2.5 µM in test [11]; > 30 µM in [12]. The AC50 in test [13] is > 30 µM; in [14] it was > 30 µM; in test [15], > 10 µM; in test [16], > 30 µM.

As to `CCNC(=O)/C=C(C)/C=C/C=C(C)/C=C/c1c(C)cc(OC)c(C)c1C` [MOTRETINIDE], the AC50 in test [1] was 24.1 µM; in [2], > 30 µM; in [3] it was > 30 µM; in [4] it was > 30 µM; in test [5], > 30 µM; in test [6] it was > 30 µM. In addition, the AC50 in test [7] is > 30 µM; in [8] it was > 30 µM; in test [9] it was > 30 µM; in [10], > 30 µM; in [11], 12 µM; in test [12], 6.95 µM. Besides, the AC50 in test [13] was > 30 µM; in [14], > 10 µM; in test [15], > 30 µM; in test [16], > 30 µM.

On to `C=CC(=O)Nc1cccc(Oc2nc(Nc3ccc(N4CCN(C)CC4)cc3)nc3ccsc23)c1` [OLMUTINIB], for which the AC50 is 12.3 µM in test [1]; 4.35 µM in [2]; 0.453 µM in [3]; > 30 µM in [4]; 3.19 µM in [5]; 0.94 µM in [6]. For the same compound, the AC50 in test [7] was > 30 µM; in test [8], > 30 µM; in test [9] it was > 30 µM; in test [10], 2.44 µM; in test [11], > 30 µM; in test [12], > 30 µM. Moreover, the AC50 in test [13] is 3.81 µM; in test [14], 0.0559 µM; in test [15], 1.64 µM; in test [16] it was > 30 µM.

As for `COc1ccc2[nH]c([S+]([O-])Cc3ncc(C)c(OC)c3C)nc2c1` (stereo not drawn) [OMEPRAZOLE], the AC50 in test [1] was > 30 µM; in test [2], > 30 µM; in [3] it was 20.7 µM; in test [4], > 30 µM; in test [5] it was > 30 µM; in test [6], > 30 µM. Further, the AC50 in test [7] was > 30 µM; in [8], > 30 µM; in test [9], > 30 µM; in [10], > 30 µM; in [11], > 30 µM; in test [12], 5.76 µM. The AC50 was > 30 µM in test [13], > 30 µM in test [14], 15.7 µM in test [15] and > 30 µM in test [16].

`CCCCC1C(=O)N(c2ccccc2)N(c2ccc(O)cc2)C1=O` (stereo not drawn) [OXYPHENBUTAZONE ANHYDROUS]: the AC50 in [1], in [2], in test [3], in test [4], in test [5] and in test [6] was > 30 µM each time. Besides, the AC50 in test [7] is > 30 µM; in test [8], > 30 µM; in test [9] it was > 30 µM; in test [10] it was > 30 µM; in [11], 21.8 µM; in test [12], 7.8 µM. The AC50 in test [13], in test [14], in test [15] and in test [16] was > 30 µM throughout.
